Laboratory results published in patent US20250313548A1 (Actio Biosciences, Inc., priority 2023, published 2025).

Biological target: human, KCNT1 (Homo sapiens (Human), UniProt Q5JUK3)
Test: FLIPR Tl/K Flux Assay
Format: cell-based
Settings: HEK293 cells stably expressing human KCNT1; Tl+ flux stimulated with EC80 of agonist Loxapine
Protocol: HEK293 cells stably expressing human, KCNT1 were cultured in DMEM, 10% FBS, 100 U/mL penicillin-streptomycin and […] puromycin for selection purposes. One day before the assay, cells were detached using TrypLE™ Express and counted using a cell counter. Only cells with >85% viability were used for the assay. […] The cells were incubated overnight at 37° C., 5% (v/v) CO2.
On the day of the assay, the reagents were prepared following the FLIPR® Potassium Assay Kit manual: prepare 2× dye solution, dilute the dye with assay buffer (20 mM HEPES in 1× HBSS, PH7.4), addition of probenecid to a final concentration of 5 mM, and vortexed vigorously for 1-2 minutes. The cell plate was flicked to remove medium and tapped on paper towels to remove excess media. […] The cell plate was moved to a plate shaker, agitated at 600 rpm for two minutes, and then incubated at 25° C. for one hour.
The compounds were prepared in DMSO and transferred to a 384-well compound plate (PP, low binding), referred to as a source plate. Reference agonist (300 nM) compound and test inhibitor (10 mM) compounds were added to the compound plate and a 4-fold serial dilution was performed in DMSO. Using an ECHO dispenser, compounds were dispensed at 90 nL/well from the source plate to a 384-well compound plate (PP, low binding). After the dispensing was complete, 30 µL/well assay buffer was added to the compound plate and mixed for two minutes on a plate shaker. The cell plate, compound plate, and tips were loaded into the FLIPR instrument, and a transfer of 10 μl of 3× compound to the cell plate was initiated. The treated cell plate was kept at in the dark at 25° C. for 30 minutes. Chloride-free stimulation buffer containing 4× 2 mM Tl+ and 4×EC80 of agonist Loxapine was loaded into a 384-well compound plate (PP, low binding). After the 30-minute incubation, the cell plate, compound plate containing stimulation buffer, and FLIPR tips were loaded into the FLIPR instrument. After a baseline read, the FLIPR initiates a transfer of 10 μL of stimulation buffer containing Loxapine to the cell plate. The plate was read for 160 sec with 1 second interval reads to obtain the data.
The normalized fluorescence reading (RFU) was calculated as shown follow, while Fmax and Fmin stand for maximum and minimum of signal during defined time window. The IC50 was calculated by fitting % inhibition against log of compound concentrations with Hill equation using XLfit.

human, KCNT1, sequence (Q5JUK3 whole entry): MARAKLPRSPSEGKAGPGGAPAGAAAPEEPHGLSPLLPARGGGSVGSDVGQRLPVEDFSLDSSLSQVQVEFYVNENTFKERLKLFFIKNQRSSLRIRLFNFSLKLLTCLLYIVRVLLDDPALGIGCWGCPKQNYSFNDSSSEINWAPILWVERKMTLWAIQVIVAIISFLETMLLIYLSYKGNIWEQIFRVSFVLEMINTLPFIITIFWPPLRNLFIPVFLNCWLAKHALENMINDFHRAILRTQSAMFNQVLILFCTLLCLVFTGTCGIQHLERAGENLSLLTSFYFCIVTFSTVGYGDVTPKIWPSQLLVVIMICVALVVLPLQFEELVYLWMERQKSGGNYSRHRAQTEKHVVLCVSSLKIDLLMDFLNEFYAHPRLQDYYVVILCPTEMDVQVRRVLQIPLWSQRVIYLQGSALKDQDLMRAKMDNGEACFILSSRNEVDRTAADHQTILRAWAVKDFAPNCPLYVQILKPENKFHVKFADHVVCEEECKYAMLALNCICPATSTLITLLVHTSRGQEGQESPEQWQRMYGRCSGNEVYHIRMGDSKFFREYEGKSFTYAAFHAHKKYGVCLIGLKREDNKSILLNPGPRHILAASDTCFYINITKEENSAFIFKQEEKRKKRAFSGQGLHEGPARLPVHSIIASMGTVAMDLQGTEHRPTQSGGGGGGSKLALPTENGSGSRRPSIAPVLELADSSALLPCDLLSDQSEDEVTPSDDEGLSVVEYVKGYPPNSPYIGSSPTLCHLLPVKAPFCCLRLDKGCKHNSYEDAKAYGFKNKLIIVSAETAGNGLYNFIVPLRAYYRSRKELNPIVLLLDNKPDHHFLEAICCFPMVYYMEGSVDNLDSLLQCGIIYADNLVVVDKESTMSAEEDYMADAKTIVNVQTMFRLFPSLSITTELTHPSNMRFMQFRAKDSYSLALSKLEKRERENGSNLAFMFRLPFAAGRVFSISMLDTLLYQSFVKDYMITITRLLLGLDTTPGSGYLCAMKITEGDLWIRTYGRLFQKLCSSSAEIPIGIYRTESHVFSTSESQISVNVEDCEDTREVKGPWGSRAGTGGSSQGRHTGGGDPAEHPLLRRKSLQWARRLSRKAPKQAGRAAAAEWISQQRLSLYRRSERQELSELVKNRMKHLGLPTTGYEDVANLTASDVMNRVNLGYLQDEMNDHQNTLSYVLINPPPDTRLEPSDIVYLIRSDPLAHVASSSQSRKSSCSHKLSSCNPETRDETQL

Structure (SMILES) | IC50 [nM]
Cc1c(-c2ccnc(C(F)(F)F)c2)nn2c1[C@@H](NC(=O)c1cc(C(F)(F)F)nn1C)CCC2 [Compound I-44a] | < 250
Cn1nc(C(F)(F)F)cc1C(=O)N[C@@H]1CCCc2cnc(-c3ccnc(C(F)(F)F)c3)nc21 [Compound I-452b] | > 1000
O=C(N[C@H]1CCCn2nc(-c3ccnc(C(F)(F)F)c3)nc21)c1cncc(C(F)(F)F)n1 [Compound I-215a, (S)-6-(Trifluoromethyl)-N-(2-(2-(trifluoromethyl)pyridin-4-yl)-5,6,7,8-tetrahydro-[1,2,4]triazolo[1,5-a]pyridin-8-yl)pyrazine-2-carboxamide] | < 250
O=C(N[C@H]1CCCn2nc(-c3ccnc(C(F)(F)F)c3)cc21)C12CC(C(F)(F)F)(C1)C2 [Compound I-501a, (S)-3-(Trifluoromethyl)-N-(2-(2-(trifluoromethyl)pyridin-4-yl)-4,5,6,7-tetrahydropyrazolo[1,5-a]pyridin-4-yl)bicyclo[1.1.1]pentane-1-carboxamide] | < 250
COc1cc(-c2cc3n(n2)CC[C@@H]3NC(=O)c2cccc(C(F)(F)F)c2)ccn1 [Compound I-286a, (S)-N-(2-(2-Methoxypyridin-4-yl)-5,6-dihydro-4H-pyrrolo[1,2-b]pyrazol-4-yl)-3-(trifluoromethyl)benzamide] | < 250
COc1cc(-c2nc3c(o2)[C@@H](NC(=O)c2cc(Cl)cc(Cl)c2)CCC3)c(F)cn1 [Compound I-174a, (S)-3,5-Dichloro-N-(2-(5-fluoro-2-methoxypyridin-4-yl)-4,5,6,7-tetrahydrobenzo[d]oxazol-7-yl)benzamide] | < 250
O=C(N[C@H]1CCn2nc(-c3ccnc(C(F)(F)F)c3)cc21)c1ccnc(OC(F)F)c1 [Compound I-226a, (S)-2-(Difluoromethoxy)-N-(2-(2-(trifluoromethyl)pyridin-4-yl)-5,6-dihydro-4H-pyrrolo[1,2-b]pyrazol-4-yl)isonicotinamide] | < 250
Cc1cc(C#N)cc(C(=O)N[C@H]2CCn3nc(-c4cc(C(F)(F)F)ncc4F)cc32)c1 [Compound I-140a] | < 250
Cn1nc(C(F)(F)F)cc1C(=O)N[C@H]1CCn2nc(-c3ccnc(OC(F)F)c3)cc21 [Compound I-233a, (S)-N-(2-(2-(Difluoromethoxy)pyridin-4-yl)-5,6-dihydro-4H-pyrrolo[1,2-b]pyrazol-4-yl)-1-methyl-3-(trifluoromethyl)-1H-pyrazole-5-carboxamide] | < 250
O=C(N[C@H]1CCn2nc(-c3cc(C(F)(F)F)ncc3F)cc21)c1ccnc(OC(F)F)c1 [Compound I-547a, (S)-2-(Difluoromethoxy)-N-(2-(5-fluoro-2-(trifluoromethyl)pyridin-4-yl)-5,6-dihydro-4H-pyrrolo[1,2-b]pyrazol-4-yl)isonicotinamide] | < 250
O=C(N[C@H]1CCCn2nc(-c3ccnc(C(F)(F)F)c3)cc21)c1cnc(C(F)(F)F)cn1 [Compound I-582a, (S)-5-(Trifluoromethyl)-N-(2-(2-(trifluoromethyl)pyridin-4-yl)-4,5,6,7-tetrahydropyrazolo[1,5-a]pyridin-4-yl)pyrazine-2-carboxamide] | < 250
Cc1cnc(C2CC2)cc1-c1cc2n(n1)CC[C@@H]2NC(=O)c1nc(C(F)(F)F)nn1C [Compound I-492a, (S)-N-(2-(2-Cyclopropyl-5-methylpyridin-4-yl)-5,6-dihydro-4H-pyrrolo[1,2-b]pyrazol-4-yl)-1-methyl-3-(trifluoromethyl)-1H-1,2,4-triazole-5-carboxamide] | < 250
O=C(N[C@H]1CCCn2nc(-c3cc(C(F)(F)F)ncc3Cl)cc21)c1ccnc(OC(F)(F)F)c1 [Compound I-179a, (S)-N-(2-(5-Chloro-2-(trifluoromethyl)pyridin-4-yl)-4,5,6,7-tetrahydropyrazolo[1,5-a]pyridin-4-yl)-2-(trifluoromethoxy)isonicotinamid] | < 250
Cn1nc(CC(F)(F)F)cc1C(=O)N[C@H]1CCCn2nc(-c3ccnc(C(F)(F)F)c3)cc21 [Compound I-389a] | < 250
Cn1nc(C(F)(F)F)nc1C(=O)N[C@H]1CCn2nc(-c3cc(C4CC4)ncc3F)cc21 [Compound I-483a, (S)—N-(2-(2-Cyclopropyl-5-fluoropyridin-4-yl)-5,6-dihydro-4H-pyrrolo[1,2-b]pyrazol-4-yl)-1-methyl-3-(trifluoromethyl)-1H-1,2,4-triazole-5-carboxamide] | < 250
O=C(N[C@H]1CCCn2nc(-c3ccnc(C(F)(F)F)c3)cc21)c1cnn(CC(F)(F)F)c1 [Compound I-435a] | > 1000
Cc1nn(C(F)(F)F)cc1C(=O)N[C@H]1CCn2nc(-c3ccnc(C4CC4)c3)cc21 [Compound I-555a, (S)-N-(2-(2-Cyclopropylpyridin-4-yl)-5,6-dihydro-4H-pyrrolo[1,2-b]pyrazol-4-yl)-3-methyl-1-(trifluoromethyl)-1H-pyrazole-4-carboxamide] | < 250
Cn1nc(C(F)(F)F)cc1C(=O)N[C@@H]1CCCc2cc(-c3ccnc(C(F)(F)F)c3)[nH]c21 [Compound I-475b] | > 1000

More lines, now with the values ahead:

IC50 [nM] | Structure (SMILES)
250 to 500 | Cn1nc(C2CC2)cc1C(=O)NC1CCCc2nn(-c3ccnc(C(F)(F)F)c3)cc21 (racemic) [Compound I-11, (rac)-3-Cyclopropyl-1-methyl-N-(2-(2-(trifluoromethyl)pyridin-4-yl)-4,5,6,7-tetrahydro-2H-indazol-4-yl)-1H-pyrazole-5-carboxamide]
< 250 | COc1cc(-c2cc3n(n2)CCC[C@@H]3NC(=O)c2cc(F)cc(C(F)(F)F)c2)ccn1 [Compound I-287a, (S)-3-Fluoro-N-(2-(2-methoxypyridin-4-yl)-4,5,6,7-tetrahydropyrazolo[1,5-a]pyridin-4-yl)-5-(trifluoromethyl)benzamide]
250 to 500 | COc1cc(-n2cc3c(n2)CCCC3NC(=O)c2cc(C(F)(F)F)nn2C)ccn1 (racemic) [Compound I-25, (rac)-N-(2-(2-Methoxypyridin-4-yl)-4,5,6,7-tetrahydro-2H-indazol-4-yl)-1-methyl-3-(trifluoromethyl)-1H-pyrazole-5-carboxamide]
< 250 | Cn1nc(C(F)(F)F)cc1C(=O)N[C@H]1CCc2nn(-c3cc(C4CC4)ncc3F)cc21 [Compound I-190a, (S)-N-(2-(2-Cyclopropyl-5-fluoropyridin-4-yl)-2,4,5,6-tetrahydrocyclopenta[c]pyrazol-4-yl)-1-methyl-3-(trifluoromethyl)-1H-pyrazole-5-carboxamide]
< 250 | O=C(N[C@H]1CCc2nn(-c3ccnc(C(F)(F)F)c3)cc21)c1cc(F)cc(F)c1 [Compound I-100a]
> 1000 | Cn1nc(C2CC2)cc1C(=O)N[C@@H]1CCCCc2nn(-c3ccnc(C(F)(F)F)c3)cc21 [Compound I-369b]
< 250 | Cn1nc(C2CC2)cc1C(=O)N[C@H]1CCCCc2nn(-c3ccnc(C(F)(F)F)c3)cc21 [Compound I-369a]
> 1000 | Cc1ccccc1C(=O)N[C@@H]1CCc2nn(-c3ccnc(C(F)(F)F)c3)cc21 [Compound I-92b]
< 250 | N#Cc1cc(F)cc(C(=O)N[C@H]2CCc3nn(-c4ccnc(C(F)(F)F)c4)cc32)c1 [Compound I-455a]
< 250 | CCOc1cc(-n2cc3c(n2)CCCCC3NC(=O)c2cccc(C(F)(F)F)c2)ccn1 (racemic) [Compound I-61, (rac)-N-(2-(2-Ethoxypyridin-4-yl)-2,4,5,6,7,8-hexahydrocyclohepta[c]pyrazol-4-yl)-3-(trifluoromethyl)benzamide]
< 250 | O=C(N[C@H]1CCCCc2nn(-c3ccnc(C(F)(F)F)c3)cc21)c1cc(Cl)cc(C(F)(F)F)c1 (single isomer, unassigned) [Compound I-109a]
< 250 | O=C(N[C@H]1CCc2nc(-c3ccnc(C(F)(F)F)c3)ccc21)c1cccc(C(F)(F)F)c1 [Compound I-133a, (S)-3-(Trifluoromethyl)-N-(2-(2-(trifluoromethyl)pyridin-4-yl)-6,7-dihydro-5H-cyclopenta[b]pyridin-5-yl)benzamide]
< 250 | Cc1cc(C(=O)N[C@H]2CCc3nn(-c4ccnc(C(F)(F)F)c4)cc32)cc(C(F)(F)F)c1 [Compound I-373a]
250 to 500 | Cn1nc2ccccc2c1C(=O)NC1CCCc2nn(-c3ccnc(C(F)(F)F)c3)cc21 (racemic) [Compound I-26, (rac)-2-Methyl-N-(2-(2-(trifluoromethyl)pyridin-4-yl)-4,5,6,7-tetrahydro-2H-indazol-4-yl)-2H-indazole-3-carboxamide]
